Test results as given in the NIST ThermoML archive (doi:10.1016/j.jct.2013.07.025).
± gives the expanded uncertainty stated by the source.

Experiments:
[1] = Crystal; DTA
[2] = Molar enthalpy of transition or fusion; conditions: Crystal; DSC

SMILES | Normal melting temperature [1] | Molar enthalpy of transition or fusion [2]
CC(=O)[O-].C[N+](C)(C)CCO [choline acetate] | 67.60 ± 0.96 °C | 3.94 ± 0.454 kcal/mol
C[N+](C)(C)CCOC(=O)CCC(=O)O.[Cl-] [hydrogen choline chloride succinate] | 147.40 ± 0.96 °C | 8.87 ± 0.502 kcal/mol
